Measurements published in patent publication US20070280915A1, “Combination Therapies Employing A Composition Comprising A Hmg Coa Reductase Inhibitor And A Vitamin B6 Related Compound” (priority 2003, published 2007).

Assay: Effect of pyridoxal 5′-phosphate on fluorescence of the metabolic products of the CYP assays
Method: Prior to performing the CYP inhibition assays, the effect of pyridoxal 5′-phosphate on the fluorescence of the metabolic products measured in the assays was evaluated. The fluorescence of metabolite (one concentration, in duplicate) was measured in the absence (0 μM) and presence of 0.457 to 1000 μM pyridoxal 5′-phosphate. The concentrations and metabolic products measured were: 1 μM 3-cyano-7-hydroxycoumarin (CHC), 2.5 μM 7-hydroxycoumarin (7-HC), 2.5 μM 7-hydroxy-4-trifluoromethylcoumarin (HFC), 0.1 μM fluorescein, 10 μM 3-[2-(N,N-diethylamino)ethyl]-7-hydroxy-4-methylcoumarin (AHMC) and 10 μM quinolinol. The concentration of metabolite used was based on the expected maximum concentration of metabolite formed in the CYP inhibition assay (i.e. the concentration of metabolite measured following incubation substrate with the CYP subtype in the absence of an inhibitor). CHC is the fluorescent metabolite measured in the CYP1A2 and CYP2C19 assays. 7-HC is the fluorescent metabolite measured in the CYP2A6 assay, HFC is the fluorescent metabolite measured in the CYP2B6, CYP2C9, CYP2E1 and CYP3A4 (BFC as substrate) assays and fluorescein is the metabolite measured in the CYP2C8 assay. AHMC is the metabolite measured in the CYP2D6 assay and quinolinol is measured in the CYP3A4 (BQ as substrate) assay. […]

With `Cc1ncc(COP(=O)(O)O)c(C=O)c1O` [P5P, pyridoxal-5-phosphate] the “concentration at which fluorescence of metabolites was significantly quenched” value (metabolites CHC, 7-HC, 7-HFC, AHMC and quinolinol, 0.457 to 1000 μM tested) was greater than 37 µM and the “effect on the fluorescence of fluorescein” value (up to 1000 μM, fluorescein is the CYP2C8 assay product) was “did not affect”.
